Consider 22 compounds from US20150183802A1, “TRICYCLIC SULFONAMIDE DERIVATIVES” (NOVARTIS AG, priority 2013, published 2015).

The test concerns the target T1, hNav1.7 channels (Homo sapiens, UniProt Q15858).
T1 construct: host or cells: HEK293
Description: hNav1.7 channel in vitro patch-clamp assay. It counts as cell-based. As to conditions: stable HEK293 cell line expressing hNav1.7; whole cell patch-clamp (QPatch HTX and/or conventional), room temperature; voltage protocol not given. How it is done: hNav1.7 Channel In Vitro Patch-Clamp Assay
Cells: Sable HEK293 (human embryonic kidney) cell line expressing hNav1.7 channels was used in the assay. The cell line was obtained from Millipore (Millipore Corporation, MA).
Patch-clamp recordings: The recordings were performed on QPatch HTX (Sophion Bioscience, Denmark) and/or conventional patch-clamp (Axon Multiclamp 700B systems, Molecular Devices, CA) platforms at room temperature, using whole cell patch-clamp techniques. The composition of extracellular solution was (in mM): HEPES 5, NaCl 40, KCl 3, CaCl2 1, MgCl2 1, Choline Chloride 100. Adjust pH to 7.2 with 1N NaOH, osmolarity to 300-310 mOsm with sucrose. The composition of intracellular solution was (in mM): HEPES 10, NaCl 10, Na2ATP 1, MgCl2 2, KF 135, EGTA 10. Adjust pH to 7.2 with 1N NaOH, osmolarity to 290-300 mOsm with sucrose.
For conventional patch-clamp, 35 mm culture dishes containing hNav1.7 cells were placed on the stage of an inverted microscope and continuously perfused with extracellular solution from a perfusion system (Biologic Rapid solution changer, RSC-160, ˜1 ml/min). […] The recordings were controlled by pCLAMP10 software. Test compounds were dissolved in 100% DMSO to make stock solutions for each test concentration, and then diluted into extracellular solution to achieve final concentration for testing. Final DMSO concentration was less than 0.3%. Two voltage protocols were used in hNav1.7 assay: for non-inactivated protocol, the sodium currents were elicited by a 2 ms pulse to −10 mV from a holding potential of −110 mV. For inactivated protocol, the holding potential was set at V1/2. The voltage was firstly stepped to −110 mV for 50 ms, then to −10 mV for 2 ms and then stepped back to holding potential. In both protocols the voltage command was given in every 10 s. Compound effect (% inhibition) was determined by difference in current amplitude before and after the application of test compounds. IC50 values were determined from concentration-response curves that were obtained with Hill fitting.
For QPatch HTX assay, hNav1.7 cells grown to 50%-80% confluence were rinsed with DPBS and dissociated with Tryple (Invitrogen, 12605-010). The dissociated cells were then mixed with extracellular solution. After centrifuge, the cells were resuspended in extracellular solution and used in the QPatch experiment. The whole-cell protocols, voltage protocols and application protocols were established with QPatch Assay Software 3.4 (Sophion Bioscience, Denmark). Only the inactivated protocol was used in the QPatch assay.
In general terms: The patch-clamp technique gives a direct electrical read-out from membranes.

The IC50 is the concentration that inhibits the measured activity by half.

SMILES strings stand for the structures.

T1 sequence (Q15858 whole entry): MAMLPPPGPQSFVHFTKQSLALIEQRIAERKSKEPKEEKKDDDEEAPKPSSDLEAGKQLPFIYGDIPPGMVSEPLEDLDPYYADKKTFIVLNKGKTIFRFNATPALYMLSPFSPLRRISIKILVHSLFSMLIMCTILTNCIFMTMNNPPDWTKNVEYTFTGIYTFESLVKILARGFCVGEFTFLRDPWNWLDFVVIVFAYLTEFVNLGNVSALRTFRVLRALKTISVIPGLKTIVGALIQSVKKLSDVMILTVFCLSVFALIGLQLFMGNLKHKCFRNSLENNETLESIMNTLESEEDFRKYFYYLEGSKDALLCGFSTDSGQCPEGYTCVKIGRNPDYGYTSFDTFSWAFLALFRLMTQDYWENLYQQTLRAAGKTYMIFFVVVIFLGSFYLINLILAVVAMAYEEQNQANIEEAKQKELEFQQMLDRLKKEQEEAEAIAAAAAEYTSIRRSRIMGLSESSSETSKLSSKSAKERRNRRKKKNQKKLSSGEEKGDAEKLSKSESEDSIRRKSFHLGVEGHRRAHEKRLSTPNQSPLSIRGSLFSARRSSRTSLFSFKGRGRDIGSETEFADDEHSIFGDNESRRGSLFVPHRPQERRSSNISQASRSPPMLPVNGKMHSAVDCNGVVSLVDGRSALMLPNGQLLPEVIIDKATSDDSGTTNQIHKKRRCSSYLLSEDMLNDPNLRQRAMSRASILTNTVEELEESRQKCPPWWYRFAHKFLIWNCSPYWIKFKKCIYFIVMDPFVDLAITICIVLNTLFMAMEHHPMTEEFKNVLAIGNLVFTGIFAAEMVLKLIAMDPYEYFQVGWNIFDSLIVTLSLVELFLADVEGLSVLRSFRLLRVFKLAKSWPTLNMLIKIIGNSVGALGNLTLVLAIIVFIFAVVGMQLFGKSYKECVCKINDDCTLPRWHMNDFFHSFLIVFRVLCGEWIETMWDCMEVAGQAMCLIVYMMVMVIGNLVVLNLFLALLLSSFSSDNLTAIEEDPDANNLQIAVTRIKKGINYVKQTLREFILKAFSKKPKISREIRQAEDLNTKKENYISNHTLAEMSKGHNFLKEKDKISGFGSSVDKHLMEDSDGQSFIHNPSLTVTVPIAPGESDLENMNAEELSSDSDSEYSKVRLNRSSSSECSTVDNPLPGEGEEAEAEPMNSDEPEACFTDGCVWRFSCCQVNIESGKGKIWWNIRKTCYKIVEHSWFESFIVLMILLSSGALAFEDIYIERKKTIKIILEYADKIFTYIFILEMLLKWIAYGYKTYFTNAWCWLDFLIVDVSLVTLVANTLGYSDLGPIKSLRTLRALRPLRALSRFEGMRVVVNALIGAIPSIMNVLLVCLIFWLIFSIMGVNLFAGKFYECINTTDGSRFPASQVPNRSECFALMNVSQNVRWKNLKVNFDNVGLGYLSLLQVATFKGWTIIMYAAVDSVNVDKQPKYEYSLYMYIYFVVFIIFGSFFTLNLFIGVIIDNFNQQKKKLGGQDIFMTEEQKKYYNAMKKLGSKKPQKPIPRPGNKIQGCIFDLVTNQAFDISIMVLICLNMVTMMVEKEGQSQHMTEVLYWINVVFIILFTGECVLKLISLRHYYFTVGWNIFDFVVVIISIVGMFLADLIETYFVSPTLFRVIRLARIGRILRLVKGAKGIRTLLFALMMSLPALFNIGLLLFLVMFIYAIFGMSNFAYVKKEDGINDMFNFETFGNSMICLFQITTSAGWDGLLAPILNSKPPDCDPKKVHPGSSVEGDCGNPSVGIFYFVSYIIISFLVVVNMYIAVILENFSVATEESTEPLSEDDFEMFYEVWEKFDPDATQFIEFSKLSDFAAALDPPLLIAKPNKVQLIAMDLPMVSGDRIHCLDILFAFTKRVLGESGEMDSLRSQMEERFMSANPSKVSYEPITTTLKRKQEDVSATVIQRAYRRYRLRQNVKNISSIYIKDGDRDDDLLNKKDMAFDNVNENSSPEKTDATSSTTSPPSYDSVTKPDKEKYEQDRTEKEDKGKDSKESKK

With `CS(=O)(=O)Nc1noc2cc3c(cc12)C1(CC1)C(=O)N3c1cnc(OCC2CCOCC2)c(Cl)c1` [Example 12, N-(7′-(5-chloro-6-((tetrahydro-2H-pyran-4-yl)methoxy)pyridin-3-yl)-6′-oxo-6′,7′-dihydrospiro[cyclopropane-1,5′-isoxazolo[4,5-f]indol]-3′-yl)methanesulfonamide], the IC50 was determined as 2000 nM. `CS(=O)(=O)Nc1noc2cc3c(cc12)C1(CC1)C(=O)N3c1cnc(OCC2CCC(F)(F)CC2)c(Cl)c1` [Example 13, N-(7′-(5-chloro-6-((4,4-difluorocyclohexyl)methoxy)pyridin-3-yl)-6′-oxo-6′,7′-dihydrospiro[cyclopropane-1,5′-isoxazolo[4,5-f]indol]-3′-yl)methanesulfonamide] came in with an IC50 of 300 nM. Compound `CS(=O)(=O)Nc1noc2cc3c(cc12)C1(CC1)C(=O)N3c1cnc(OCC2CCC(C(F)(F)F)CC2)c(Cl)c1` (stereo not shown) [Example 14, N-(7′-(5-chloro-6-((4-(trifluoromethyl)cyclohexyl)methoxy)pyridin-3-yl)-6′-oxo-6′,7′-dihydrospiro[cyclopropane-1,5′-isoxazolo[4,5-f]indol]-3′-yl)methanesulfonamide] returned an IC50 of 200 nM. The figure for `CC1(COc2ncc(N3C(=O)C4(CC4)c4cc5c(NS(C)(=O)=O)noc5cc43)cc2Cl)CC1` [Example 15, N-(7′-(5-chloro-6-((1-methylcyclopropyl)methoxy)pyridin-3-yl)-6′-oxo-6′,7′-dihydrospiro[cyclopropane-1,5′-isoxazolo[4,5-f]indol]-3′-yl) methanesulfonamide] is 70 nM; for `CC1(COc2ncc(N3C(=O)C4(CC4)c4cc5c(NS(=O)(=O)C6CC6)noc5cc43)cc2Cl)CC1` [Example 16, N-(7′-(5-chloro-6-((1-methylcyclopropyl)methoxy)pyridin-3-yl)-6′-oxo-6′,7′-dihydrospiro[cyclopropane-1,5′-isoxazolo[4,5-f]indol]-3′-yl)cyclopropanesulfonamide] it is 60 nM; for `O=C1N(c2cnc(OCCCC(F)(F)F)c(Cl)c2)c2cc3onc(NS(=O)(=O)C4CC4)c3cc2C12CC2` [Example 17, N-(7′-(5-chloro-6-(4,4,4-trifluorobutoxyl)pyridin-3-yl)-6′-oxo-6′,7′-dihydrospiro[cyclopropane-1,5′-isoxazolo[4,5-f]indol]-3′-yl)cyclopropanesulfonamide] it is 200 nM. The figure for `C[C@H](Oc1ncc(N2C(=O)C3(CC3)c3cc4c(NS(=O)(=O)C5CC5)noc4cc32)cc1Cl)c1ccc(F)cc1` [Example 18, (S)—N-(7′-(5-chloro-6-(1-(4-fluorophenyl)ethoxy)pyridin-3-yl)-6′-oxo-6′,7′-dihydrospiro[cyclopropane-1,5′-isoxazolo[4,5-f]indol]-3′-yl)cyclopropanesulfonamide] is 100 nM. `O=C1N(c2cnc(OC3CC(F)(F)C3)c(Cl)c2)c2cc3onc(NS(=O)(=O)C4CC4)c3cc2C12CC2` [Example 19, N-(7′-(5-chloro-6-(3,3-difluorocyclobutoxyl)pyridin-3-yl)-6′-oxo-6′,7′-dihydrospiro[cyclopropane-1,5′-isoxazolo[4,5-f]indol]-3′-yl)cyclopropanesulfonamide] came in with an IC50 of 200 nM. The figure for `O=C1N(c2cnc(OCC(F)(F)F)c(Cl)c2)c2cc3onc(NS(=O)(=O)C4CC4)c3cc2C12CC2` [Example 20, N-(7′-(5-chloro-6-(2,2,2-trifluoroethoxyl)pyridin-3-yl)-6′-oxo-6′,7′-dihydrospiro[cyclopropane-1,5′-isoxazolo[4,5-f]indol]-3′-yl)cyclopropanesulfonamide] is 500 nM; for `O=C1N(c2cnc(OC3CCC3)c(Cl)c2)c2cc3onc(NS(=O)(=O)C4CC4)c3cc2C12CC2` [Example 21, N-(7′-(5-chloro-6-cyclobutoxypyridin-3-yl)-6′-oxo-6′,7′-dihydrospiro[cyclopropane-1,5′-isoxazolo[4,5-f]indol]-3′-yl)cyclopropanesulfonamide] it is 150 nM. `CC(C)COc1ncc(N2C(=O)C3(CC3)c3cc4c(NS(=O)(=O)C5CC5)noc4cc32)cc1F` [Example 22, N-(7′-(5-fluoro-6-isobutoxypyridin-3-yl)-6′-oxo-6′,7′-dihydrospiro[cyclopropane-1,5′-isoxazolo[4,5-f]indol]-3′-yl)cyclopropanesulfonamide] came in with an IC50 of 300 nM. With `CC1CCC(COc2ncc(N3C(=O)C4(CC4)c4cc5c(NS(=O)(=O)C6CC6)noc5cc43)cc2Cl)CC1` (stereo not shown) [Example 23, N-(7′-(5-chloro-6-((4-methylcyclohexyl)methoxy)pyridin-3-yl)-6′-oxo-6′,7′-dihydrospiro[cyclopropane-1,5′-isoxazolo[4,5-f]indol]-3′-yl)cyclopropanesulfonamide], the IC50 was determined as 200 nM. The figure for `CCC(C)Oc1ncc(N2C(=O)C3(CC3)c3cc4c(NS(=O)(=O)C5CC5)noc4cc32)cc1Cl` (stereo not shown) [Example 24, N-(7′-(6-(sec-butoxy)-5-chloropyridin-3-yl)-6′-oxo-6′,7′-dihydrospiro[cyclopropane-1,5′-isoxazolo[4,5-f]indol]-3′-yl)cyclopropanesulfonamide] is 70 nM; for `O=C1N(c2cnc(OCC3CCC3)c(Cl)c2)c2cc3onc(NS(=O)(=O)C4CC4)c3cc2C12CC2` [Example 25, N-(7′-(5-chloro-6-(cyclobutylmethoxy)pyridin-3-yl)-6′-oxo-6′,7′-dihydrospiro[cyclopropane-1,5′-isoxazolo[4,5-f]indol]-3′-yl)cyclopropanesulfonamide] it is 80 nM; for `O=C1N(c2cnc(OC3CCCCC3)c(Cl)c2)c2cc3onc(NS(=O)(=O)C4CC4)c3cc2C12CC2` [Example 26, N-(7′-(5-chloro-6-(cyclohexyloxy)pyridin-3-yl)-6′-oxo-6′,7′-dihydrospiro[cyclopropane-1,5′-isoxazolo[4,5-f]indol]-3′-yl)cyclopropanesulfonamide] it is 110 nM. `O=C1N(c2cnc(OCC3CCCC3)c(Cl)c2)c2cc3onc(NS(=O)(=O)C4CC4)c3cc2C12CC2` [Example 27, N-(7′-(5-chloro-6-(cyclopentylmethoxy)pyridin-3-yl)-6′-oxo-6′,7′-dihydrospiro[cyclopropane-1,5′-isoxazolo[4,5-f]indol]-3′-yl)cyclopropanesulfonamide] had an IC50 of 90 nM.

Take `O=C1N(c2cnc(OCC3CC3)c(Cl)c2)c2cc3onc(NS(=O)(=O)C4CC4)c3cc2C12CC2` [Example 28, N-(7′-(5-chloro-6-(cyclopropylmethoxy)pyridin-3-yl)-6′-oxo-6′,7′-dihydrospiro[cyclopropane-1,5′-isoxazolo[4,5-f]indol]-3′-yl)cyclopropanesulfonamide]: the IC50 stood at 200 nM. The same measure for `COc1ncc(N2C(=O)C3(CC3)c3cc4c(NS(=O)(=O)C5CC5)noc4cc32)cc1Cl` [Example 29, N-(7′-(5-chloro-6-methoxypyridin-3-yl)-6′-oxo-6′,7′-dihydrospiro[cyclopropane-1,5′-isoxazolo[4,5-f]indol]-3′-yl)cyclopropanesulfonamide]: 800 nM. The same measure for `O=C1N(c2cnc(OC(F)F)c(Cl)c2)c2cc3onc(NS(=O)(=O)C4CC4)c3cc2C12CC2` [Example 30, N-(7′-(5-chloro-6-(difluoromethoxy)pyridin-3-yl)-6′-oxo-6′,7′-dihydrospiro[cyclopropane-1,5′-isoxazolo[4,5-f]indol]-3′-yl)cyclopropanesulfonamide]: 630 nM; for `CS(=O)(=O)Nc1noc2cc3c(cc12)C1(CC1)C(=O)N3c1ccc(Cl)c(Cl)c1` [Example 31, N-(7′-(3,4-dichlorophenyl)-6′-oxo-6′,7′-dihydrospiro[cyclopropane-1,5′-isoxazolo[4,5-f]indol]-3′-yl)methanesulfonamide]: 800 nM; for `CC(C)COc1c(Cl)cc(N2C(=O)C3(CC3)c3cc4c(NS(C)(=O)=O)noc4cc32)cc1C#N` [Example 32, N-(7′-(3-chloro-5-cyano-4-isobutoxyphenyl)-6′-oxo-6′,7′-dihydrospiro[cyclopropane-1,5′-isoxazolo[4,5-f]indol]-3′-yl)methanesulfonamide]: 900 nM. The same measure for `CC(C)COc1c(F)cc(N2C(=O)C3(CC3)c3cc4c(NS(=O)(=O)C5CC5)noc4cc32)cc1Cl` [Example 33, N-(7′-(3-chloro-5-fluoro-4-isobutoxyphenyl)-6′-oxo-6′,7′-dihydrospiro[cyclopropane-1,5′-isoxazolo[4,5-f]indol]-3′-yl)cyclopropanesulfonamide]: 100 nM.
